{
  "source": "patent US20100024572A1",
  "about": "“POLYMER NEMS FOR CELL […] MICRO[…] P[…] FOR MICRO-BIOCALORIMETER” (CALIFORNIA INSTITUTE OF TECHNOLOGY, priority 2006, published 2010)",
  "test_system": "individual adherent cells",
  "test": "Force measurement from a single adherent cell on microfluidic embedded polymer NEMS force sensor",
  "format": "cell-based",
  "conditions": "200 pN force resolution, 10 ms time resolution",
  "source_text": "Successful micro-fluidic encapsulation is routine and consistently performed at very high yields, (>90%). The force sensing capabilities of the devices have been tested and calibrated by perturbing the force sensors with glass micro-needles mounted on piezo-electric actuators, data shown in FIG. 6A. The force sensors have been tested in micro-fluidics be measuring their response to shear forces generated by fluid flow. The force sensors have been successfully used to measure forces exerted by individual adherent cells and to study the mechanical response of those cells to cytoskeleton perturbing reagents such as Cytochalasin D.\nSuch measurements were performed with 200 pN force resolution—an improvement of 25 fold over prior art—and 10 ms time resolution—and improvement of 300 fold over prior art.\nThese measurements were performed with 200 pN force resolution—an improvement of 25 fold over prior art—and 10 ms time resolution—and improvement of 300 fold over prior art.",
  "data": [
    {"smiles": "C=C1[C@@H](C)[C@H]2[C@H](Cc3ccccc3)NC(=O)[C@]23[C@H](OC(C)=O)/C=C/[C@@](C)(O)C(=O)[C@@H](C)C/C=C/[C@H]3[C@@H]1O", "note": "[Cytochalasin D]", "values": [
      {"measurement": "force exerted by a single cell (force vs. time) when Cytochalasin D is removed", "setting": "after removal of Cytochalasin D", "value": "recovery of the force"},
      {"measurement": "force exerted by a single cell (force vs. time) when Cytochalasin D is introduced", "setting": "stable force in growth media before", "value": "collapse of that force"}
    ]}
  ]
}
